Experimental data from ChEMBL document CHEMBL3880382, “TRH-like peptide derivatives as inhibitors of the TRH-degrading ectoenzyme” (2010).
Non-standard residues stand in square brackets, D forms with d. Residues, ends and D or L forms follow the SMILES beside them. hPhe = N[C@@H](CCc1ccccc1)C(=O)O; 2Thi = N[C@@H](Cc1cccs1)C(=O)O; pGlu = O=C1CC[C@@H](C(=O)O)N1; Phg = N[C@H](C(=O)O)c1ccccc1; Pip = O=C(O)[C@@H]1CCCCN1; Nva = CCC[C@H](N)C(=O)O

biological target: T1, Thyrotropin releasing hormone degrading enzyme (Sus scrofa) (UniProt A0A287AP33); assay: Inhibition of pig brain TRH-DE at 1 mM using Glp-His-ProAMC as substrate by DPP-4-based continuous fluorometric method
T1 sequence (A0A287AP33 as listed by the source): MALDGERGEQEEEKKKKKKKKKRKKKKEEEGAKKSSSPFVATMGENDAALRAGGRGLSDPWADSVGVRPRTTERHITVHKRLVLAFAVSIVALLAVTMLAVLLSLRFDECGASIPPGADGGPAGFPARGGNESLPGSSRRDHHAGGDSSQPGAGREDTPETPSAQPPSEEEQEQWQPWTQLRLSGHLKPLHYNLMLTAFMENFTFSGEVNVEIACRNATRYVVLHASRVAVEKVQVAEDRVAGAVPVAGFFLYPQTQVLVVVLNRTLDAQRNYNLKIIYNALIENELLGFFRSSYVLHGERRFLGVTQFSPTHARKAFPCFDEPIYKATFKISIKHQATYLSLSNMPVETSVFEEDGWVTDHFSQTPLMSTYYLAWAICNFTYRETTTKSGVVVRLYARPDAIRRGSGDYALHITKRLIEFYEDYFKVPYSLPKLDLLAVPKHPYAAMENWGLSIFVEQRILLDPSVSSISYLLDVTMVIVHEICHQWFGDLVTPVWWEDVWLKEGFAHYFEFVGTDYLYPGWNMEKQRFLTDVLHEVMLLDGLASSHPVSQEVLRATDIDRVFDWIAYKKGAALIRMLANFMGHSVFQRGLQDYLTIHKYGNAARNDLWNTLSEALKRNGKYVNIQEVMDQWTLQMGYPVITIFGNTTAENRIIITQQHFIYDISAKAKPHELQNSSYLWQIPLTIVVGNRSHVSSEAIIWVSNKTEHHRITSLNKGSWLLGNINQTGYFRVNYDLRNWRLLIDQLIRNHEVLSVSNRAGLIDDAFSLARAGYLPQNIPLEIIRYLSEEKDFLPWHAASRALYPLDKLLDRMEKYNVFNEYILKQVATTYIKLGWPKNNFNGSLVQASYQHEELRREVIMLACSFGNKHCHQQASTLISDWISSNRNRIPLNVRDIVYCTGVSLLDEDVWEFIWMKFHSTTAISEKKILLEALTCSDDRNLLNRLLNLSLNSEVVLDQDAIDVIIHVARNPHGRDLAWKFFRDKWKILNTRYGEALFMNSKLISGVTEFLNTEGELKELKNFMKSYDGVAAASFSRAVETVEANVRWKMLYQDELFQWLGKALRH

SMILES	inhibition
NC(=O)[C@@H]1CCCN1C(=O)[C@@H](NC(=O)[C@@H]1CCC(=O)N1)c1ccccc1 ([pGlu]-[Phg]-Pro-NH2)	57%
NC(=O)[C@@H]1CCCN1C(=O)CNC(=O)[C@@H]1CCC(=O)N1 ([pGlu]-Gly-Pro-NH2)	8%
NC(=O)C[C@@H](NC(=O)[C@@H]1CCC(=O)N1)C(=O)N1CCC[C@H]1C(N)=O ([pGlu]-[dN]-Pro-NH2)	2%
NC(=O)[C@@H]1CCCN1C(=O)[C@H](Cc1c[nH]c2ccccc12)NC(=O)[C@@H]1CCC(=O)N1 ([pGlu]-Trp-Pro-NH2)	71%
NC(=O)[C@@H]1CCCN1C(=O)[C@@H]1CCCN1C(=O)[C@@H]1CCC(=O)N1 ([pGlu]-Pro-Pro-NH2)	3%

Further lines, results first:

inhibition	SMILES
17%	NC(=O)[C@@H]1CCCN1C(=O)[C@H](CCC(=O)O)NC(=O)[C@@H]1CCC(=O)N1 ([pGlu]-Glu-Pro-NH2)
1%	NC(=O)[C@@H]1CCCN1C(=O)[C@H](CC(=O)O)NC(=O)[C@@H]1CCC(=O)N1 ([pGlu]-Asp-Pro-NH2)
40%	NC(=O)[C@@H]1CCCN1C(=O)[C@@H]1CCCCN1C(=O)[C@@H]1CCC(=O)N1 ([pGlu]-[Pip]-Pro-NH2)

biological target: T1, Thyrotropin releasing hormone degrading enzyme (Sus scrofa); assay: Substrate activity at pig brain TRH-DE assessed as rate of hydrolysis at 1 mM incubated for 18 hrs by HPLC analysis

SMILES	Activity
C[C@@H](O)[C@H](NC(=O)[C@@H]1CCC(=O)N1)C(=O)N1CCC[C@H]1C(N)=O ([pGlu]-Thr-Pro-NH2)	0.14 U/mg
NC(=O)[C@@H]1CCCN1C(=O)[C@H](CO)NC(=O)[C@@H]1CCC(=O)N1 ([pGlu]-Ser-Pro-NH2)	0.05 U/mg
N=C(N)NCCC[C@H](NC(=O)[C@@H]1CCC(=O)N1)C(=O)N1CCC[C@H]1C(N)=O ([pGlu]-Arg-Pro-NH2)	0.41 U/mg
CCC[C@H](NC(=O)[C@@H]1CCC(=O)N1)C(=O)N1CCC[C@H]1C(N)=O ([pGlu]-[Nva]-Pro-NH2)	0.04 U/mg
CSCC[C@H](NC(=O)[C@@H]1CCC(=O)N1)C(=O)N1CCC[C@H]1C(N)=O ([pGlu]-Met-Pro-NH2)	0.21 U/mg
O=C1CC[C@@H](C(=O)N[C@@H](Cc2cnc[nH]2)C(=O)N2CCC[C@H]2C(=O)O)N1	3.38 U/mg

The remaining lines, values ahead:

Activity	SMILES
2.54 U/mg	NC(=O)[C@@H]1CCCN1C(=O)[C@H](Cc1c[nH]cn1)NC(=O)[C@@H]1CCC(=O)N1
2.12 U/mg	NC(=O)[C@@H]1CCCN1C(=O)[C@H](Cc1cccs1)NC(=O)[C@@H]1CCC(=O)N1 ([pGlu]-[2Thi]-Pro-NH2)
0.14 U/mg	CC(C)C[C@H](NC(=O)[C@@H]1CCC(=O)N1)C(=O)N1CCC[C@H]1C(N)=O ([pGlu]-Leu-Pro-NH2)
0.02 U/mg	C[C@H](NC(=O)[C@@H]1CCC(=O)N1)C(=O)N1CCC[C@H]1C(N)=O ([pGlu]-Ala-Pro-NH2)
0.06 U/mg	CC[C@H](C)[C@H](NC(=O)[C@@H]1CCC(=O)N1)C(=O)N1CCC[C@H]1C(N)=O ([pGlu]-Ile-Pro-NH2)
0.66 U/mg	NC(=O)[C@@H]1CCCN1C(=O)[C@H](Cc1ccc(O)cc1)NC(=O)[C@@H]1CCC(=O)N1 ([pGlu]-Tyr-Pro-NH2)
0.05 U/mg	CC(C)[C@H](NC(=O)[C@@H]1CCC(=O)N1)C(=O)N1CCC[C@H]1C(N)=O ([pGlu]-Val-Pro-NH2)
1.56 U/mg	NC(=O)[C@@H]1CCCN1C(=O)[C@H](Cc1ccccc1)NC(=O)[C@@H]1CCC(=O)N1 ([pGlu]-Phe-Pro-NH2)
0.05 U/mg	NC(=O)[C@@H]1CCCN1C(=O)[C@H](CCc1ccccc1)NC(=O)[C@@H]1CCC(=O)N1 ([pGlu]-[hPhe]-Pro-NH2)
0.46 U/mg	NCCCC[C@H](NC(=O)[C@@H]1CCC(=O)N1)C(=O)N1CCC[C@H]1C(N)=O ([pGlu]-Lys-Pro-NH2)

biological target: T1, Thyrotropin releasing hormone degrading enzyme (Sus scrofa); assay: Substrate activity at pig brain TRH-DE assessed as retention time at 1 mM incubated for 18 hrs by HPLC analysis

Retention time	SMILES
15.9 min	COc1cccc(NC(=O)[C@@H]2CCCN2C(=O)[C@H](CC(N)=O)NC(=O)[C@@H]2CCC(=O)N2)c1
15.4 min	COc1ccccc1NC(=O)[C@@H]1CCCN1C(=O)[C@H](CC(N)=O)NC(=O)[C@@H]1CCC(=O)N1

biological target: T1, Thyrotropin releasing hormone degrading enzyme (Sus scrofa); assay: Substrate activity at pig brain TRH-DE assessed as Vmax to Km ratio

SMILES	Vmax/Km
Cc1cc(=O)oc2cc(NC(=O)[C@@H]3CCCN3C(=O)[C@H](Cc3cnc[nH]3)NC(=O)[C@@H]3CCC(=O)N3)ccc12	0.04 U/mg/µM
O=C1CC[C@@H](C(=O)N[C@@H](Cc2cnc[nH]2)C(=O)N2CCC[C@H]2C(=O)O)N1	0.01 U/mg/µM

The remaining lines, values ahead:

Vmax/Km	SMILES
0.08 U/mg/µM	NC(=O)[C@@H]1CCCN1C(=O)[C@H](Cc1c[nH]cn1)NC(=O)[C@@H]1CCC(=O)N1
0.06 U/mg/µM	NC(=O)[C@@H]1CCCN1C(=O)[C@H](Cc1cccs1)NC(=O)[C@@H]1CCC(=O)N1 ([pGlu]-[2Thi]-Pro-NH2)
0.05 U/mg/µM	NC(=O)[C@@H]1CCCN1C(=O)[C@H](Cc1ccc(O)cc1)NC(=O)[C@@H]1CCC(=O)N1 ([pGlu]-Tyr-Pro-NH2)
0.03 U/mg/µM	NC(=O)[C@@H]1CCCN1C(=O)[C@H](Cc1ccccc1)NC(=O)[C@@H]1CCC(=O)N1 ([pGlu]-Phe-Pro-NH2)
